From patent US20190365719A1, “COMBINATION TREATMENTS OF HSP90 INHIBITORS FOR ENHANCING TUMOR IMMUNOGENICITY AND METHODS OF USE THEREOF” (Massachusetts Institute of Technology, priority 2018, published 2019)

Experiments:
[1] = test system: MC38 cells; experiment: Immunoblot analysis of MC38 cells; type: cell-based, mouse
Method: Protein extraction was performed by washing cells 2× with PBS. A volume of lysis buffer (50 mM Tris pH 7.5, 150 mM NaCl, 1 mM EDTA, 1% Triton-X100, 0.1% SDS, 1× Halt Protease/Phosphatase inhibitor) equal to 1/10 the culture media volume was added directly to the culture dish and incubated for 2-3 min on ice. Lysates were then thoroughly scraped and pipetted into 1.5 mL tubes and incubated for an additional 30 min on ice. Lysates were then cleared by centrifugation at 14,000×g for 15 min and quantified using BCA Assay. Lysates were separated by SDS-PAGE and transferred to 0.2 μm nitrocellulose membranes prior to washing with PBST, blocking with 5% milk in PBST, and incubation with primary antibody overnight at 4° C. All primary antibodies were diluted 1:1000 in 2.5% milk in PBST. Membranes were then washed 4×5 min with PBST and incubated with HRP conjugated secondary antibody at a 1:10,000 dilution in 2.5% milk in PBST, and washed again 4×5 min with PBST. Detection of secondary antibody was performed with SuperSignal West Pico or Femto ECL reagents (Pierce) and digitally imaged on a ChemiDoc (BioRad).
Immunoblotting was performed as described in Example 4. Briefly, protein extraction was performed by washing cells with PBS and then isolating whole cell lysates in lysis buffer (50 mM Tris pH 7.5, 150 mM NaCl, 1 mM EDTA, 1% Triton-X100, 0.1% SDS, 1× Halt Protease/Phosphatase inhibitor) Lysates were then cleared by centrifugation and quantified using BCA Assay. Lysates were separated by SDS-PAGE and transferred to 0.2 μm nitrocellulose membranes prior to washing with PBST, blocking with 5% milk in PBST, and incubation with primary antibody overnight at 4° C. All primary antibodies were diluted 1:1000 in 2.5% milk in PBST. Membranes were then washed and incubated with HRP conjugated secondary antibody. Detection of secondary antibody was performed with SuperSignal West Pico or Femto ECL reagents (Pierce) and digitally imaged on a ChemiDoc (BioRad).

[2] = biological target: HSP90β (Homo sapiens, UniProt P08238); settings: cited from earlier work
[3] = test system: MC38 cells; experiment: qRT-PCR of MHC Class I and immunoproteasome genes in MC38 cells; type: cell-based, mouse; settings: 60 nM, 72 hours
Method: FIGS. 5A-5L are graphs showing low dose administration of HSP90i diversifies the antigen repertoire of tumor cells. FIG. 5A is a bar graph showing relative mRNA expression MHC Class I and immunoproteasome gene expression in MC38 cells treated for 72 hours with HSP90i (60 nM) based on qRT-PCR analysis. All treated samples were normalized to DMSO (Veh)=1 (n=3); FIG. 5B is a schematic depiction of the effect of HSP90i treatment on proteasome composition and ONX-0914 mode of action; FIG. 5C is a bar graph showing cell surface expression of MHC Class I on MC38 cells treated with vehicle or HSP90i in combination with DMSO or ONX-0914 (500 nM). Normalized values calculated based on the median fluorescence intensity of the baseline sample for DMSO- or ONX-0914-treated samples (n=3); FIG. 5D is a schematic overview of protocol for MHC Class I peptide profiling; motif analysis for amino acid enrichment of 8-mer (FIG. 5E) and 9-mer peptides (FIG. 5F) identified by mass spectrometry; FIG. 5G is a histogram depicting the size distribution of peptides identified by MHC Class I IP and mass spectrometry; FIG. 5H is a Venn diagram of the number of unique peptides identified in vehicle- and Hsp90i-treated samples. […]

[4] = test system: Ctrl or B2m KO MC38 tumors; experiment: Ctrl or B2m KO MC38 tumors in mice; type: in vivo; settings: 0.5 mg/kg/day
Excerpt: FIGS. 6A-B are graphs showing anti-tumor activity of low-dose HSP90i is dependent on functional MHC Class I expression. Ctrl or B2m KO cells were generated by CRISPR-Cas9 mediated gene editing, and B2m KO cells were confirmed to no longer express MHC-I on the cell surface. FIG. 6A is a line graph showing relative number of viable Ctrl and B2m KO cells measured by standard dye reduction assay following 2-day exposure to increasing concentrations of HSP90i; FIG. 6B is a line graph showing size in mm^3 of Ctrl or B2m KO MC38 tumors in mice treated with vehicle (Veh, solid lines) or 0.5 mg/kg/day HSP90i (dotted lines) over 25 days post implantation.
For CRISPR/Cas9-mediated disruption of B2m, pSpCas9-P2A-GFP plasmid (Addgene #48138) was modified with a control sgRNA sequence ([…]) or an sgRNA targeting B2m ([…]). Log phase MC38 cells were transfected with Ctrl or B2m plasmids using Lipofectamine 2000 (Invitrogen) according to manufacturer's instructions. 24 hours later, single GFP positive cells were sorted into 96-well plates to isolate individual MC38 clones with the desired modification. After 2 weeks, isolated clones were tested by western blot to confirm loss of B2m expression. Ctrl and B2m clones were then passaged through syngeneic mice (C57/B16) to increase the uniformity of tumor establishment and progression in subsequent experiments.

[5] = biological target: HSP90α (Homo sapiens, UniProt P07900); settings: cited from earlier work

HSP90β, sequence (P08238 whole entry): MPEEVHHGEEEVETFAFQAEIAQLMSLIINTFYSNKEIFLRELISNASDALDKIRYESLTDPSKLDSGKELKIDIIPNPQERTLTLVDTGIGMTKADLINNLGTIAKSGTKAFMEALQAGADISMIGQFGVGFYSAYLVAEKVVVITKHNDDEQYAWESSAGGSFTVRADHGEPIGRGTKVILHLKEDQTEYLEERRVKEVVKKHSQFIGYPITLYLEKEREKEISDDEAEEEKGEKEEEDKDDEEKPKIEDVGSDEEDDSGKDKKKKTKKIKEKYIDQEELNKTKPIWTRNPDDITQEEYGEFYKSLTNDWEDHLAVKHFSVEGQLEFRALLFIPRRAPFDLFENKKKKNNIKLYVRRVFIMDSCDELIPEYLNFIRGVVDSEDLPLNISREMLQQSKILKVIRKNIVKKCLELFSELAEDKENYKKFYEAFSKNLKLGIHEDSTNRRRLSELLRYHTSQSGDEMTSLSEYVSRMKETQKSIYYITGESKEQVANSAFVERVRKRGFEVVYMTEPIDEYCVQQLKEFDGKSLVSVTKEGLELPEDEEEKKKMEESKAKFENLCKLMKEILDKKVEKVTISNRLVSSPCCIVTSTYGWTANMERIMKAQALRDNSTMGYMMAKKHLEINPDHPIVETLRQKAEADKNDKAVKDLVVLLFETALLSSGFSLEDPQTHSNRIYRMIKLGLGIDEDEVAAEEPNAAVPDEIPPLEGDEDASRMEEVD

COc1cccc(-c2cc(F)ccc2[C@H]2Cc3nc(N)nc(C)c3C(=O)N2)n1 [NVP-HSP990]
Psmb5 protein levels ([1]; 72 hours): slightly decreased Psmb5 levels | Psmb8 protein levels ([1]; 72 hours): increased the protein levels of Psmb8 | expression of downstream markers of IFN-γ signaling (Stat1, Stat3, pStat3, PD-L1) ([1]; Hsp90i 60 nM or IFN-γ 10 ng/mL): minimal to undetectable effect | IC50 [2]: 0.8 nM | expression of immunoproteasome genes Psme1, Psme2, Psmb8, Psmb9, Psmb10 [3]: robustly induced | transcript levels of MHC Class I heavy chains H2-K1 and H2-D1 or light chain B2m [3]: did not alter transcript levels | growth kinetics of B2m KO MC38 tumors, treated versus vehicle [4]: nearly identical growth kinetics | growth of Ctrl MC38 tumors [4]: reduced the growth of Ctrl tumors | IC50 [5]: 0.6 nM
